# According to patent publication US20230390315A1, “COMPOSITIONS AND METHODS FOR TREATING ISCHEMIC CONDITIONS” (The Regents of the University of California, priority 2020, published 2023):
# Tests used:
# [1] = test system: dermal microvascular endothelial cells (hDMVECs); assay: hDMVEC proliferation assay; format: cell-based, human
# Procedure: (§1) Proliferation assays with BCECs and BRECs were performed. Log-phase growing BCECs or BRECs (passage <10) were trypsinized, re-suspended and seeded in 96-well plates (no coating) in low-glucose DMEM supplemented with 10% bovine calf serum, 2 mM glutamine, and antibiotics (growth medium), at a density of 1200-1500 cells per well in 200 μl volume. All reagents were added at the indicated final concentrations. After 3-6 days, cells were incubated with AlamarBlue for 4 hrs. Fluorescence was measured at 530 nm excitation wavelength and 590 nm emission wavelength. The experiments were repeated at least three times. To create a hypoxic condition, cells were placed in a hypoxia incubator with a mixture of gas consisting of 1% 02, 5% CO2 and 94% Nz. On each 96-well plate, untreated and VEGF-treated (10/ng/ml) wells were included to monitor plate-to-plate variations. 20% methanol or 0.05% DMSO served as negative controls. 0.05% DMSO served as negative controls when Cas was tested in these cells. Human RMVECs and human adult DMVECs were split into Gelatin-coated 96 wells (2000 cells per well) in low glucose DMEM containing 10% FBS. 1200 cells/well was set up for proliferation assay in low glucose media containing FBS. Data was collected at day 4 or 5. HUVEC (p7-10) were grown on gelatin-coated plate until it reached 70-80% confluency.
# (§2) Proliferation assays with fibroblasts were done in low-glucose DMEM containing 1% FBS, with or without 10 ng/ml bFGF, or 100 ng/ml human EGF and the assay was ended at day 3. ARPE-19 cells were gently lifted with 0.025% trypsin and plated in RtEGM media (Clonetics) containing 2% FBS, L-glutamine, human bFGF and GA-1000. Once cells were attached to plates, serum-free RtEGM media was used to maintain the cultures. For proliferation assays, 1500 human RPE cells were plated into 96-well plates in low-glucose DMEM containing 1% FBS. […] Four days later, tumor cell growth was measured by the MTS assay (Promega, Madison, WI), a colorimetric assay that measures metabolic activity of viable cells. […]
# bovine pituitary cells = assay: Bovine pituitary cell proliferation assay; format: cell-based; settings: alone or in combination with growth factors
# Procedure: as §2, with “FBS. A673, U87MG, Calu6 and AML12 cells were grown until confluent and were then harvested and re-suspended in appropriate assay media. For proliferation assays, cells were plated at the density of 1000-2000 cells/well in low-glucose DMEM containing 5% FBS or otherwise stated. Bovine pituitary cells (pituitary folliculostellate cells) were isolated as previously described. For proliferation assays with human epidermal keratinocytes, human DMVECs and human dermal fibroblast cells, 1000 cells/well were plated in low-glucose DMEM containing 1% FBS with or without various growth factors. The assay was ended at day 3 for bovine pituitary cells and at day 4 for all the other cell types.” for “FBS.”
# HUVEC = HUVEC proliferation assay; format: cell-based, human
# Procedure: as §1
# On the day of the assay, cells were dissociated with 0.05% trypsin, which was neutralized with 0.5% FBS-containing EBM. Cells were briefly spun and then re-suspended in 0.5% FBS-media. Cells were counted and plated in 96-well, 1000 cells/well. Triplicate wells were used for each treatment. Data were collected at day 3, and then cells were fixed in 4% paraformaldehyde for 15 min before adding crystal violet. Cell-covered areas were quantified after taking pictures by Image J software.
smiles,measurement,setting,value
"N[C@H](C=O)[C@@H](O)[C@H](O)[C@H](O)CO [ManN, 2-Amino-2-deoxy-D-mannose]",hDMVECs growth,[1]; ManN by itself,stimulated
same,additivity with VEGF on proliferation,[1]; hDMVECs,dose-dependent additivity with VEGF
same,toxicity,"[1]; hDMVECs, at 5 mM",minimal toxicity
same,proliferation of bovine pituitary cells,bovine pituitary cells,no increases in proliferation
same,additivity with VEGF on proliferation,HUVEC; HUVEC,dose-dependent additivity with VEGF
same,toxicity,"HUVEC; HUVEC, at 5 mM",minimal toxicity
same,HUVEC growth,HUVEC; ManN by itself,stimulated
